Patent publication US12507703B2, “Methods, devices and compositions for preserving human milk” (The Trustees of Princeton University, priority 2023, dated 2025)
Where “and” joins values, the source holds several entries; their conditions need not be identical. Identical values can stand only once.

test system: lipase; test: Lipase/lipolysis assay (EnzChek Lipase Substrate, quenched BODIPY-fatty acid conjugate) on stored human milk; details: not given; note: test concentration or dose not given here

Row | Molecule | Lipase (RFU)
1 | O.O=P([O-])([O-])OC1C(OP(=O)([O-])[O-])C(OP(=O)([O-])[O-])C(OP(=O)([O-])[O-])C(OP(=O)([O-])[O-])C1OP(=O)([O-])[O-].[Na+].[Na+].[Na+].[Na+].[Na+].[Na+].[Na+].[Na+].[Na+].[Na+].[Na+].[Na+] (stereo not shown) [Phytic acid (dodecasodium hydrate)] | 1018.084 RFU and 920.5233 RFU
2 | Nc1nc2c(ncn2[C@@H]2O[C@@H]3COP(=O)([O-])O[C@H]3[C@H]2O)c(=O)[nH]1.[Na+] [Cyclic GMP (sodium)] | 1109.907 RFU
3 | CC1(C)[C@H](C(=O)O)N2C(=O)C[C@H]2S1(=O)=O [Sulbactam] | 759.2536 RFU
4 | c1ccc2c(-c3nccs3)c[nH]c2c1 [Camalexin] | 1018.047 RFU
5 | Nc1ncnc2c1ncn2[C@@H]1O[C@H](COP(=O)(O)OP(=O)(O)OP(=O)([O-])[O-])[C@@H](O)[C@H]1O.O.O.O.[Na+].[Na+] [ATP (disodium trihydrate)] | 947.4309 RFU
6 | COC1=CC(=O)O[C@@H](/C=C/c2ccc3c(c2)OCO3)C1 [Methylsticin] | 1261.171 RFU
7 | CCO.C[C@H]1c2cccc(O)c2C(O)=C2C(=O)[C@]3(O)C(O)=C(C(N)=O)C(=O)[C@@H](N(C)C)[C@@H]3[C@@H](O)[C@@H]21.C[C@H]1c2cccc(O)c2C(O)=C2C(=O)[C@]3(O)C(O)=C(C(N)=O)C(=O)[C@@H](N(C)C)[C@@H]3[C@@H](O)[C@@H]21.Cl.Cl.O [Doxycycline (hyclate)] | 757.6717 RFU
8 | Schaftoside | 900.214 RFU
9 | C[C@@H]1C(=O)O[C@H]2C[C@@]34[C@H]5C[C@@H](C(C)(C)C)[C@]36[C@@H](OC(=O)[C@@H]6O)O[C@@]4(C(=O)O5)[C@]21O [Ginkgolide A] | 772.6433 RFU
10 | CC(O)CO (stereo not shown) [1,2-Propanediol] | 1150.168 RFU
11 | O=C(O)C1CSSC1 [Asparagusic acid] | 934.8474 RFU
12 | OCc1c[nH]c2ccccc12 [Indole-3-carbinol] | 1082.489 RFU
13 | O=c1cc(-c2ccc(O)cc2)oc2cc(O)c([C@@H]3O[C@H](CO)[C@@H](O)[C@H](O)[C@H]3O[C@@H]3O[C@H](CO)[C@@H](O)[C@H](O)[C@H]3O)c(O)c12 [Meloside A] | 811.3753 RFU
14 | C/C=C/C=C/C(=O)[O-].[K+] [Potassium sorbate] | 727.0693 RFU and 1055.671 RFU
15 | COc1ccc2[nH]cc(CCO)c2c1 [5-Methoxytryptophol] | 1031.531 RFU
16 | CC1(C)CCC[C@]2(C)[C@H]3CC(=O)O[C@]3(C)CC[C@@H]12 [Sclareolide] | 845.6458 RFU
17 | C=C[C@](C)(O)CC[C@H]1C(=C)CC[C@H]2C(C)(C)CCC[C@]12C [Manool] | 923.6944 RFU
18 | Nc1ccccc1C(=O)C[C@H](N)C(=O)O [L-Kynurenine] | 761.0277 RFU
19 | CC(=O)OC[C@H]1O[C@@H](O[C@@H]2[C@@H](O)[C@H](O[C@@H]3[C@H](O)C(C)(C)C[C@H]4C5=CC[C@@H]6[C@@]7(C)CC[C@H](O[C@@H]8O[C@H](C(=O)O)[C@@H](O)[C@H](O)[C@H]8O[C@@H]8O[C@H](CO)[C@H](O)[C@H](O)[C@H]8O[C@@H]8O[C@H](CO)[C@@H](O)[C@H](O)[C@H]8O)[C@](C)(CO)[C@@H]7CC[C@@]6(C)[C@]5(C)CC[C@@]34C)OC[C@@H]2O)[C@H](OC(C)=O)[C@@H](OC(C)=O)[C@@H]1OC(C)=O [Soyasaponin Ab] | 976.6301 RFU
20 | OC[C@H]1O[C@@H](O[C@H]2[C@H](O)[C@@H](O)[C@H](O)O[C@@H]2CO)[C@H](O)[C@@H](O)[C@@H]1O [D-Cellobiose] | 785.8282 RFU

Row | Molecule | Lipase (RFU)
21 | COc1cc2c(cc1OC)-c1c(OC)c(OC)cc3c1[C@H](C2)N(C)CC3 [Glaucine] | 922.5844 RFU
22 | CC(=O)N[C@@H](CO)[C@@H](O)[C@H](O)[C@H](O)CO [N-Acetyl-D-Glucosaminitol] | 1055.486 RFU
23 | CC1(C)CC[C@]2(C(=O)O)CC[C@]3(C)C(=CC[C@@H]4[C@@]5(C)C[C@H](O)[C@H](O)[C@@](C)(C(=O)O)[C@@H]5CC[C@]43C)[C@@H]2C1 [Medicagenic acid] | 975.8957 RFU
24 | O=C(O)C1=CO[C@@H](O[C@@H]2O[C@H](CO)[C@@H](O)[C@H](O)[C@H]2O)[C@H]2[C@@H]1C=C[C@]2(O)CO [Monotropein] | 976.474 RFU
25 | O=C(O)C(F)(F)F.O=C1N[C@@H](Cc2cnc[nH]2)C(=O)N2CCC[C@@H]12 [Cyclo(his-pro) (TFA)] | 956.1787 RFU
26 | CC(=O)O[C@H]1CC(=O)OC(C)(C)[C@@H]2CC(=O)[C@]3(C)[C@H](CC[C@@]4(C)[C@H](c5ccoc5)OC(=O)[C@H]5O[C@]543)[C@@]12C [Nomilin] | 989.5541 RFU
27 | CCCCCCCC(=O)CCc1ccc(O)c(OC)c1 [Paradol] | 1060.26 RFU and 1109.933 RFU
28 | O=C(/C=C/c1ccc(O)c(O)c1)O[C@H](C(=O)O)[C@H](OC(=O)/C=C/c1ccc(O)c(O)c1)C(=O)O [L-Chicoric Acid] | 1257.708 RFU
29 | CC1(C)C[C@@H](O)[C@]2(C)CC[C@]3(C)C(=CC[C@@H]4[C@@]5(C)CC[C@H](O)[C@](C)(CO)[C@@H]5CC[C@]43C)[C@@H]2C1 [Soyasapogenol B] | 1146.412 RFU
30 | O[C@H]1[C@H](O)[C@@H](O)[C@H](O)[C@@H](O)[C@H]1O [i-Inositol] | 1026.636 RFU and 1128.491 RFU
31 | CC(=O)O[C@@H]1CC[C@@]2(C)[C@@H](CC[C@]3(C)[C@@H]2C(=O)C=C2[C@@H]4[C@@H](C)[C@H](C)CC[C@]4(C)CC[C@]23C)[C@@]1(C)C(=O)O [AKBA] | 1066.269 RFU
32 | CCCCOC(=O)c1ccc(O)cc1 [Butylparaben] | 948.3985 RFU
33 | C[C@H](CCC(=O)O)[C@H]1CC[C@H]2[C@@H]3[C@H](O)C[C@@H]4C[C@H](O)CC[C@]4(C)[C@H]3C[C@H](O)[C@]12C [Cholic acid (sodium)] | 828.0633 RFU and 816.2579 RFU
34 | COc1cc(O[C@@H]2O[C@H](CO)[C@@H](O)[C@H](O)[C@H]2O)c2c(O)c(C(C)=O)c(C)cc2c1 [Torachrysone-8-O-b-D-glucoside] | 1039.734 RFU
35 | O.O=C(O)c1cc(O)c(O)c(O)c1 [Gallic acid (hydrate)] | 709.0148 RFU
36 | COC1=CC(=O)OC(/C=C/c2ccccc2)C1 (single isomer, unassigned; (+)) [(+)-Kavain] | 895.974 RFU
37 | O=C(O)CCCCC1CCSS1 (stereo not shown) [Lipoic acid] | 1146.052 RFU
38 | Chondroitin (sulfate) | 714.418 RFU
39 | O=C1CCCCCCCCCCCCCCO1 [ω-Pentadecalactone] | 959.0542 RFU
40 | CC1(C)[C@H](C(=O)[O-])N2C(=O)C[C@H]2S1(=O)=O.[Na+] [Sulbactam (sodium)] | 1191.707 RFU

Row | Molecule | Lipase (RFU)
41 | COc1cc(C=CC(=O)O)cc(OC)c1O (stereo in doubt) [Sinapinic acid] | 1040.338 RFU
42 | CC1=C(C/C=C(\C)CCC[C@H](C)CCC[C@H](C)CCCC(C)C)C(=O)c2ccccc2C1=O [Phylloquinone] | 1038.691 RFU
43 | Pinoresinol | 1253.681 RFU
44 | OC[C@H]1O[C@@H](Oc2cc3c(O)cc(O)cc3[o+]c2-c2ccc(O)c(O)c2)[C@H](O)[C@@H](O)[C@@H]1O.[Cl-] [Kuromanin (chloride)] | 1192.7 RFU
45 | C=C(C)[C@@H](O)COc1c2ccoc2cc2oc(=O)ccc12 [Pangelin] | 581.7367 RFU
46 | NC(=O)OP(=O)(O)O [Carbamyl Phosphate] | 699.376 RFU
47 | COc1cc(C[C@@H](CO)[C@H](CO)Cc2ccc(O)c(OC)c2)ccc1O [Secoisolariciresinol] | 1112.005 RFU
48 | Oc1ccc([C@H]2Oc3cc(O)cc(O)c3C[C@@H]2O)cc1 [(+)-Afzelechin] | 1063.84 RFU
49 | O=C(C=Cc1ccc(O)c(O)c1)OC1CC(O)(C(=O)O)CC(O)C1OC(=O)C=Cc1ccc(O)c(O)c1 (stereo not shown) [4,5-Dicaffeoylquinic acid] | 1065.884 RFU
50 | CC(C)[C@]12CC(=O)[C@H](C)[C@H]1C2 [α-Thujone] | 659.4321 RFU
51 | OC[C@H]1O[C@H](OCC2O[C@@H](O)[C@H](O)[C@@H](O)[C@@H]2O)[C@H](O)[C@@H](O)[C@H]1O (stereo partly drawn) [D-Melibiose] | 850.0787 RFU and 747.8737 RFU
52 | COc1ccc(-c2cc(=O)c3c(O)c(OC)c(OC)cc3o2)cc1OC [5-Desmethylsinensetin] | 571020.7 RFU
53 | CC/C=C\CC1=C(C)CCC1=O [cis-Jasmone] | 1015.76 RFU
54 | N#CC[C@H](N)C(=O)O [β-cyano-L-Alanine] | 869.3786 RFU
55 | COc1cc(O)c2c(c1)O[C@H](c1cc(O)cc(O)c1)CC2=O [Blumeatin] | 847.8117 RFU
56 | CC(=O)c1c(C)c([N+](=O)[O-])c(C(C)(C)C)c([N+](=O)[O-])c1C [Musk ketone] | 777.5201 RFU
57 | OC[C@H]1O[C@@H](O[C@H]2[C@H](O)[C@@H](O)[C@@H](O)O[C@@H]2CO)[C@H](O)[C@@H](O)[C@H]1O [α-Lactose] | 963.7922 RFU
58 | Lupeol acetate | 966.2407 RFU
59 | O=C(O)CC(O)C(=O)O (racemic) [D,L-Malic Acid] | 781.9881 RFU
60 | O=C([O-])[C@H](O)[C@@H](O)[C@H](O)[C@H](O)CO.[K+] [Potassium Gluconate] | 966.4096 RFU and 888.9701 RFU

same assay, conditions: (hydrochloride)

Row | Molecule | Lipase (RFU)
61 | Cl.N[C@@H](CS)C(=O)O [L-Cysteine (hydrochloride)] | 936.4597 RFU and 1023.471 RFU
